# Test results: paper PMC11596392, “Enhanced Antibacterial, Anti-Inflammatory, and Antibiofilm Activities of Tryptophan-Substituted Peptides Derived from Cecropin A-Melittin Hybrid Peptide BP100” (Molecules, 2024)
# Where no end group is shown, it is not given here.
# Tests used:
# MDRPA (CCARM 2095) = format: cell-based, multidrug-resistant Pseudomonas aeruginosa; conditions: broth microdilution in MHB, 37 °C, 24 h, 100% inhibition of growth
# Experimental: (§1) The antibacterial efficacy of the synthesized peptides was evaluated by determining the minimal inhibitory concentrations (MICs) against six standard bacterial strains and five drug-resistant bacterial strains using the Clinical and Laboratory Standards Institute (CLSI) microdilution method. Melittin served as the positive control.
# (§2) The minimal inhibitory concentrations (MICs) of the peptides against bacterial strains were determined using a modified broth-microdilution method in accordance with the National Committee for Clinical Laboratory Standards (NCCLS) guidelines. Overnight cultures were diluted in cation-adjusted Mueller–Hinton Broth (MHB) to achieve an inoculum density of 2 × 10^6 CFU/mL. A two-fold serial dilution of the peptide solution (100 μL) was introduced into microtiter plates, followed by the addition of 100 μL of bacterial suspension. The plates were then incubated at 37 °C for 24 h to determine the MICs. Wells containing only culture media served as negative controls, while those with added bacteria functioned as positive controls. The MIC, expressed in μM, was defined as the lowest peptide concentration that prevented visible bacterial growth. This protocol was also employed to determine MICs in the presence of physiological salts (150 mM of NaCl, 4.5 mM of KCl, 6 μM of NH4Cl, 1 mM of MgCl2, 2.5 mM of CaCl2, and 4 μM of FeCl3) and 20% human serum to assess the peptides’ efficacy under conditions more closely resembling physiological environments. All experiments were conducted in triplicate and repeated three times independently to ensure reproducibility and statistical significance of the results.
# MDRPA (CCARM 2109) = format: cell-based, multidrug-resistant Pseudomonas aeruginosa; conditions: broth microdilution in MHB, 37 °C, 24 h, 100% inhibition of growth
# Experimental: as §1, §2
# [1] = tested on: preformed MDRPA (CCARM 2095) biofilms; format: cell-based, multidrug-resistant Pseudomonas aeruginosa; conditions: 24 h treatment; for MBEC50: 50% eradication; for MBEC90: 90% eradication
# Experimental: While preventing biofilm formation on surfaces is crucial, treating established biofilm infections presents a significant challenge due to the extracellular polymeric substance (EPS) matrix hindering antibiotic penetration and the high cell density within mature biofilms. To address this challenge, we evaluated the ability of BP100 and its analogs to eradicate established MDRPA biofilms over a 24 h period. The minimum biofilm eradication concentration (MBEC90) was determined using crystal violet staining as the lowest concentration that reduced biomass by more than 90%. Among these peptides, BP5, BP6, BP7, BP8, BP9, BP11, and BP13 eradicated preformed MDRPA biofilms by more than 90% at a concentration of 8 μM (Figure 3c,d and Table 3).
# The minimal biofilm eradication concentration (MBEC) for peptides against the multidrug-resistant Pseudomonas aeruginosa (MDRPA) (CCARM 2095) strain was assessed using the Calgary Biofilm Device (CBD), supplied by Innovotech, Edmonton, AB, Canada. A bacterial suspension with a density of (1 × 10^6) CFU/mL in (150 µL) of Luria–Bertani (LB) media was dispensed into each well of a 96-well microtiter plate, which was equipped with a peg lid (Innovotech, product code: 19111). This plate was incubated at 37 °C for 24 h with agitation at 110 rpm, promoting biofilm formation on the pegs. Subsequently, the peg lid was washed with phosphate-buffered saline (PBS, 0.01 M) and relocated to a fresh plate containing varying peptide concentrations (200 µL per well). The biofilms were then subjected to these peptides under the same incubation conditions. After another PBS rinse, the peg lid was moved to a recovery plate filled with (200 µL) of LB media per well. To detach the biofilms from the pegs, the recovery plate underwent sonication in a water bath for 10 to 15 min. Finally, the recovery plate was incubated at 37 °C for 24 h with agitation at 110 rpm, allowing any surviving bacteria to proliferate and cause turbidity. The MBEC is defined as the lowest concentration of peptides that inhibited turbidity formation in the recovery plate in comparison to sterility controls. This experiment was conducted in triplicate, and the median value from each trial was recorded.
# MRSA (CCARM 3089) = format: cell-based, methicillin-resistant Staphylococcus aureus; conditions: broth microdilution in MHB, 37 °C, 24 h, 100% inhibition of growth
# Experimental: as §1, §2
# MRSA (CCARM 3090) = format: cell-based, methicillin-resistant Staphylococcus aureus; conditions: broth microdilution in MHB, 37 °C, 24 h, 100% inhibition of growth
# Experimental: as §1, §2
# S. aureus (KCTC 1621) = format: cell-based, Staphylococcus aureus; conditions: broth microdilution in MHB, 37 °C, 24 h, 100% inhibition of growth
# Experimental: as §1, §2
# [2] = tested on: P. aeruginosa (KCTC 1637); format: cell-based, Pseudomonas aeruginosa; conditions: broth microdilution in MHB, 37 °C, 24 h, 100% inhibition of growth
# Experimental: as §1, §2
# [3] = tested on: sheep red blood cells (sRBCs); assay: Hemolytic activity assay; format: cell-based; conditions: 4% (v/v) sheep red blood cells in PBS, 1 h, 37 °C; 1 to 256 μM tested
# Experimental: To assess toxicity in mammalian cells, we evaluated the hemolytic activity of the peptides on sheep red blood cells (sRBCs). […] The therapeutic index (TI), a measure commonly employed to evaluate the cell selectivity of antibacterial agents, was calculated as the ratio of the concentration causing 10% hemolysis of sRBCs (HC10) to the GM [19, 20, 21, 22].
# The hemolytic activity of the peptides was tested through hemolysis assay of sheep red blood cells (sRBCs). The sRBCs were diluted in PBS to achieve a 4% (v/v) concentration. Subsequently, 100 μL of peptide solutions, ranging from 1 to 256 μM, was dispensed into a 96-well plate containing an equal volume of the erythrocyte suspension. After incubating for 1 h at 37 °C and centrifuging at 1000× g for 10 min, 100 μL of the supernatant was transferred to a new 96-well plate. Hemoglobin release was quantified using a microplate reader at a wavelength of […]. The percentage of hemolysis was calculated using percentage hemolysis = 100 × [[…]], where A represents the absorbance of the peptide-treated sample at 540 nm, A0 corresponds to the absorbance value representing 0% hemolysis in PBS, and At corresponds to the absorbance value representing 100% hemolysis in 0.1% Triton X-100.
# E. coli (KCTC 1682) = format: cell-based, Escherichia coli; conditions: broth microdilution in MHB, 37 °C, 24 h, 100% inhibition of growth
# Experimental: as §1, §2
# B. subtilis (KCTC 3068) = format: cell-based, Bacillus subtilis; conditions: broth microdilution in MHB, 37 °C, 24 h, 100% inhibition of growth
# Experimental: as §1, §2
compound,measurement,setting,value
CC[C@H](C)[C@H](NC(=O)[C@H](CCCCN)NC(=O)[C@H](CCCCN)NC(=O)[C@H](Cc1c[nH]c2ccccc12)NC(=O)[C@H](CC(C)C)NC(=O)[C@H](CCCCN)NC(=O)[C@@H](N)CCCCN)C(=O)N[C@@H](CC(C)C)C(=O)N[C@@H](CCCCN)C(=O)N[C@@H](Cc1ccc(O)cc1)C(=O)N[C@@H](CC(C)C)C(N)=O [BP1],Minimal Inhibitory Concentration (MIC),MDRPA (CCARM 2095),16 µM
same,Minimal Inhibitory Concentration (MIC),MDRPA (CCARM 2109),16 µM
same,MBEC50,[1],8 µM
same,MBEC90,[1],16 µM
same,Minimal Inhibitory Concentration (MIC),MRSA (CCARM 3089),32 µM
same,Minimal Inhibitory Concentration (MIC),MRSA (CCARM 3090),64 µM
same,Minimal Inhibitory Concentration (MIC),S. aureus (KCTC 1621),8 µM
same,Minimal Inhibitory Concentration (MIC),[2],16 µM
same,HC10 (peptide concentration that caused 10% hemolysis),[3],>256 µM
same,Minimal Inhibitory Concentration (MIC),E. coli (KCTC 1682),8 µM
same,Minimal Inhibitory Concentration (MIC),B. subtilis (KCTC 3068),8 µM
CC(C)C[C@H](NC(=O)[C@H](Cc1ccc(O)cc1)NC(=O)[C@H](CCCCN)NC(=O)[C@H](CC(C)C)NC(=O)[C@H](Cc1c[nH]c2ccccc12)NC(=O)[C@H](CCCCN)NC(=O)[C@H](CCCCN)NC(=O)[C@H](Cc1ccccc1)NC(=O)[C@H](CC(C)C)NC(=O)[C@H](CCCCN)NC(=O)[C@@H](N)CCCCN)C(N)=O [BP2],Minimal Inhibitory Concentration (MIC),MDRPA (CCARM 2095),8 µM
same,Minimal Inhibitory Concentration (MIC),MDRPA (CCARM 2109),4 µM
same,MBEC50,[1],16 to 32 µM
same,MBEC90,[1],32 µM
same,Minimal Inhibitory Concentration (MIC),MRSA (CCARM 3089),16 µM
same,Minimal Inhibitory Concentration (MIC),MRSA (CCARM 3090),16 µM
same,Minimal Inhibitory Concentration (MIC),S. aureus (KCTC 1621),4 µM
same,Minimal Inhibitory Concentration (MIC),[2],8 µM
same,HC10 (peptide concentration that caused 10% hemolysis),[3],>256 µM
same,Minimal Inhibitory Concentration (MIC),E. coli (KCTC 1682),2 µM
same,Minimal Inhibitory Concentration (MIC),B. subtilis (KCTC 3068),8 µM
CC[C@H](C)[C@H](NC(=O)[C@H](CCCCN)NC(=O)[C@H](CCCCN)NC(=O)[C@H](Cc1ccccc1)NC(=O)[C@H](CC(C)C)NC(=O)[C@H](CCCCN)NC(=O)[C@@H](N)CCCCN)C(=O)N[C@@H](Cc1c[nH]c2ccccc12)C(=O)N[C@@H](CCCCN)C(=O)N[C@@H](Cc1ccc(O)cc1)C(=O)N[C@@H](CC(C)C)C(N)=O [BP3],Minimal Inhibitory Concentration (MIC),MDRPA (CCARM 2095),16 µM
same,Minimal Inhibitory Concentration (MIC),MDRPA (CCARM 2109),16 µM
same,MBEC50,[1],16 µM
same,MBEC90,[1],32 µM
same,Minimal Inhibitory Concentration (MIC),MRSA (CCARM 3089),64 µM
same,Minimal Inhibitory Concentration (MIC),MRSA (CCARM 3090),64 µM
same,Minimal Inhibitory Concentration (MIC),S. aureus (KCTC 1621),8 µM
same,Minimal Inhibitory Concentration (MIC),[2],32 µM
same,HC10 (peptide concentration that caused 10% hemolysis),[3],>256 µM
same,Minimal Inhibitory Concentration (MIC),E. coli (KCTC 1682),8 µM
same,Minimal Inhibitory Concentration (MIC),B. subtilis (KCTC 3068),16 µM
CC[C@H](C)[C@H](NC(=O)[C@H](CCCCN)NC(=O)[C@H](CCCCN)NC(=O)[C@H](Cc1ccccc1)NC(=O)[C@H](CC(C)C)NC(=O)[C@H](CCCCN)NC(=O)[C@@H](N)CCCCN)C(=O)N[C@@H](CC(C)C)C(=O)N[C@@H](CCCCN)C(=O)N[C@@H](Cc1c[nH]c2ccccc12)C(=O)N[C@@H](CC(C)C)C(N)=O [BP4],Minimal Inhibitory Concentration (MIC),MDRPA (CCARM 2095),8 µM
same,Minimal Inhibitory Concentration (MIC),MDRPA (CCARM 2109),16 µM
same,MBEC50,[1],8 µM
same,MBEC90,[1],32 µM
same,Minimal Inhibitory Concentration (MIC),MRSA (CCARM 3089),64 µM
same,Minimal Inhibitory Concentration (MIC),MRSA (CCARM 3090),64 µM
same,Minimal Inhibitory Concentration (MIC),S. aureus (KCTC 1621),4 µM
same,Minimal Inhibitory Concentration (MIC),[2],16 µM
same,HC10 (peptide concentration that caused 10% hemolysis),[3],>256 µM
same,Minimal Inhibitory Concentration (MIC),E. coli (KCTC 1682),4 µM
same,Minimal Inhibitory Concentration (MIC),B. subtilis (KCTC 3068),4 µM
CC[C@H](C)[C@H](NC(=O)[C@H](CCCCN)NC(=O)[C@H](CCCCN)NC(=O)[C@H](Cc1ccccc1)NC(=O)[C@H](CC(C)C)NC(=O)[C@H](CCCCN)NC(=O)[C@@H](N)CCCCN)C(=O)N[C@@H](CC(C)C)C(=O)N[C@@H](CCCCN)C(=O)N[C@@H](Cc1ccc(O)cc1)C(=O)N[C@@H](CC(C)C)C(N)=O [BP100],Minimal Inhibitory Concentration (MIC),MDRPA (CCARM 2095),32 µM
same,Minimal Inhibitory Concentration (MIC),MDRPA (CCARM 2109),16 µM
same,MBEC50,[1],16 to 32 µM
same,MBEC90,[1],32 µM
same,Minimal Inhibitory Concentration (MIC),MRSA (CCARM 3089),32 µM
same,Minimal Inhibitory Concentration (MIC),MRSA (CCARM 3090),64 µM
same,Minimal Inhibitory Concentration (MIC),S. aureus (KCTC 1621),4 µM
same,Minimal Inhibitory Concentration (MIC),[2],16 µM
same,HC10 (peptide concentration that caused 10% hemolysis),[3],>256 µM
same,Minimal Inhibitory Concentration (MIC),E. coli (KCTC 1682),4 µM
same,Minimal Inhibitory Concentration (MIC),B. subtilis (KCTC 3068),8 µM
KKLFKKILKWW-NH2 [BP12],Minimal Inhibitory Concentration (MIC),MDRPA (CCARM 2095),16 µM
same,Minimal Inhibitory Concentration (MIC),MDRPA (CCARM 2109),16 µM
same,MBEC50,[1],8 to 16 µM
same,MBEC90,[1],16 µM
same,Minimal Inhibitory Concentration (MIC),MRSA (CCARM 3089),64 µM
same,Minimal Inhibitory Concentration (MIC),MRSA (CCARM 3090),64 µM
same,Minimal Inhibitory Concentration (MIC),S. aureus (KCTC 1621),4 µM
same,Minimal Inhibitory Concentration (MIC),[2],16 µM
same,HC10 (peptide concentration that caused 10% hemolysis),[3],>256 µM
same,Minimal Inhibitory Concentration (MIC),E. coli (KCTC 1682),8 µM
same,Minimal Inhibitory Concentration (MIC),B. subtilis (KCTC 3068),8 µM
KKLFKKIWKWL-NH2 [BP11],Minimal Inhibitory Concentration (MIC),MDRPA (CCARM 2095),8 µM
same,Minimal Inhibitory Concentration (MIC),MDRPA (CCARM 2109),16 µM
same,MBEC50,[1],4 to 8 µM
same,MBEC90,[1],8 µM
same,Minimal Inhibitory Concentration (MIC),MRSA (CCARM 3089),8 µM
same,Minimal Inhibitory Concentration (MIC),MRSA (CCARM 3090),32 µM
same,Minimal Inhibitory Concentration (MIC),S. aureus (KCTC 1621),4 µM
same,Minimal Inhibitory Concentration (MIC),[2],8 µM
same,HC10 (peptide concentration that caused 10% hemolysis),[3],>256 µM
same,Minimal Inhibitory Concentration (MIC),E. coli (KCTC 1682),8 µM
same,Minimal Inhibitory Concentration (MIC),B. subtilis (KCTC 3068),8 µM
